Values quoted from earlier work, collected in patent US4867987A, “Pharmaceutical product for the sustained release of ibuprofen” (priority 1986, dated 1989).

CC(C)Cc1ccc(C(C)C(=O)O)cc1 (stereo not shown) [ibuprofen, 2-(4-isobutylphenyl)propionic acid]
complete elimination of ibuprofen and its metabolites after the last administration: ≤ 24 h
